Experimental findings from EP1232756A1, “DRUGS, DRINKS OR FOODS” (Takara Shuzo Co, Ltd., priority 1999, dated 2001) are described below.

In experiment [1] the test system is female SD rat. Briefly: Anti-estrogenic activity of n-octyl gallate or n-cetyl gallate against subcutaneously administered BisA, rat uterine weight (Example 11). Type of experiment: in vivo. Particulars: for Uterine weight: 3 days; for Ratio: vs control (100%). As to the method:
(§1) A 17-days old female SD rat (Japan SLC) was purchased together with its mother, weaned at 20 days of age, and subjected to experiments from the next day. n-Octyl gallate or n-cetyl gallate (both from Tokyo Kasei Kogyo) was dissolved in a small volume of ethanol. Peanut oil was added thereto to result in a final ethanol concentration of 5%. The resulting mixture was orally administered to the 21-days old female SD rat for three successive days. The uterine removed on the day after the last administration day was weighed. Peanut oil containing 5% ethanol was used for a vehicle administration group. BisA was dissolved in a small volume of ethanol. Peanut oil was added thereto to result in a final ethanol concentration of 5%. The mixture was subcutaneously administered.

The test system of experiment [2] is human breast cancer-derived MCF-7 cells. Put plainly: E-SCREEN assay, proliferation of cultured cells, MTT method (Example 8). It is filed as cell-based. As to the method: A test for proliferation of cultured cells was carried out according to a method called the E-SCREEN assay as described in Ana M. Soto et al. (Environ. Health Perspect. 103:113-122(1995)). Briefly, 4.0 x 10^3 of human breast cancer-derived MCF-7 cells in a volume of 100 µL were seeded into each well of a 96-well plate. The plate was incubated overnight. BisA or a combination of BisA and n-octyl gallate was then added thereto. A well without the addition was used as a control. The cells were further cultured for 4 days in a medium, Dulbecco's modified Eagle medium without Phenol Red supplemented with 5% FCS treated with activated carbon-dextran. The MTT method was used to measured the cell numbers.
For orientation: Tetrazolium dyes change colour on reduction, which living cells bring about.

For experiment [3], the system named is female SD rat. Put plainly: Anti-estrogenic activity of n-octyl gallate against BisA, rat uterine weight (Example 9). Type of experiment: in vivo. Particulars: for Uterine weight: 1.5 hours before BisA, 3 days; for Ratio: vs control (100%). As to the method: as §1, with “16-days” for “17-days”, “19” for “20”, “(Tokyo” for “or n-cetyl gallate (both from Tokyo”, “20-days” for “21-days”, “It” for “The mixture”, “orally administered 1.5 hours after the administration of n-octyl gallate.” for “subcutaneously administered.”

The test system of experiment [4] is female SD rat. Briefly: Anti-estrogenic activity of n-octyl gallate against NP, rat uterine weight (Example 10). It is filed as in vivo. Conditions: for Uterine weight: 1.5 hours before NP, 3 days; for Ratio: vs control (100%). As to the method: A 16-days old female SD rat (Japan SLC) was purchased together with its mother, weaned at 19 days of age, and subjected to experiments from the next day. n-Octyl gallate (Tokyo Kasei Kogyo) was dissolved in a small volume of ethanol. Peanut oil was added thereto to result in a final ethanol concentration of 5%. The resulting mixture was orally administered to the 20-days old female SD rat for three successive days. The uterine removed on the day after the last administration day was weighed. Peanut oil containing 5% ethanol was used for a vehicle administration group. NP weighed such that it would be administered at 50 mg/kg was diluted by adding peanut oil. It was orally administered 1.5 hours after the administration of n-octyl gallate.

Experiment [5] has as its target T1, ER(α) (estrogen receptor α) (Homo sapiens, UniProt P03372).
T1 construct: purchased PanVera V2577
T1 sequence (P03372 1-595): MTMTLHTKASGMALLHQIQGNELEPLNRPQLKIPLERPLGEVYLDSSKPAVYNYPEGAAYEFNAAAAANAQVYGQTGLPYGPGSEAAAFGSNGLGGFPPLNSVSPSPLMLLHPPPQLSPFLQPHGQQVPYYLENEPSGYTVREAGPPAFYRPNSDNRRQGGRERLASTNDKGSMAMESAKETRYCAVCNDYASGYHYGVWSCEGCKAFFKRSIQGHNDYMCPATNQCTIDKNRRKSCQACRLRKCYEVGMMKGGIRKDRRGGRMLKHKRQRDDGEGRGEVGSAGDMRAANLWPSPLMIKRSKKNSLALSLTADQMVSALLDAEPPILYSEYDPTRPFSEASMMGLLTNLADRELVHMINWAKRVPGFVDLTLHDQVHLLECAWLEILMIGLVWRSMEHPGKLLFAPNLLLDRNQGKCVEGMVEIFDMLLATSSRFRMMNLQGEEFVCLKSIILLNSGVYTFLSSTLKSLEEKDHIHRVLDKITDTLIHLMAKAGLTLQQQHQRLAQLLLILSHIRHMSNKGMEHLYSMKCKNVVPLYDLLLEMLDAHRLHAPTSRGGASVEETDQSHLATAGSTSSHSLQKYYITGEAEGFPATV
Briefly: Binding to estrogen receptor, fluorescence polarization competition (FP Screen-for-Competitors kit, ER-α) (Example 7). Particulars: concentration inhibiting 50% of the binding of the ES1-ER(α) complex by competing with ES1; 1 hour at room temperature. As to the method: Bindings of various gallic acid derivatives to estrogen receptor were tested using FP Screen-for-Competitors kit, ER-α, high sensitivity kit (V2577: PanVera). The tests were carried out basically according to the procedure as described in the manual attached to the kit. One of various gallic acid derivatives (n-octyl gallate (gallic acid n-octyl ester), n-dodecyl gallate (gallic acid n-dodecyl ester) and n-cetyl gallate (gallic acid n-hexadecyl ester)) was dissolved in DMSO and serially diluted to prepare diluted samples (0.5 M - 0.0000000005 M). 49 µL of Screening buffer attached to the kit was added to 1 µL of one of the diluted samples and stirred thoroughly. 50 µL of 10 nM-15 nM:ES1-ER(α) complex (a complex of ES1 (a fluorescent ligand that binds to ER) and ER(α) (estrogen receptor α)) attached to the kit was added thereto, resulting in the total volume of 100 µL. After allowing to stand for 1 hour at room temperature, fluorescence polarization was measured at an excitation wavelength of 360 nm and an emission wavelength of 535 nm using Full-Range BEACON 2000 (PanVera).
(Polarisation of emitted light reports the rotation of a fluorescent probe.)

Where [6] appears, read: BisA 40 mg/kg subcutaneous + n-octyl gallate 5 mg/kg oral.
[7] abbreviates: BisA 40 mg/kg subcutaneous + n-octyl gallate 25 mg/kg oral.
The mark [8] stands for this setting: BisA 40 mg/kg oral + n-octyl gallate 25 mg/kg oral.
Where [9] appears, read: BisA 40 mg/kg oral + n-octyl gallate 126 mg/kg oral.
Where [10] appears, read: NP 50 mg/kg oral + n-octyl gallate 25 mg/kg oral.
Where [11] appears, read: NP 50 mg/kg oral + n-octyl gallate 126 mg/kg oral.

Take `CCCCCCCCOC(=O)c1cc(O)c(O)c(O)c1` [n-octyl gallate, gallic acid n-octyl ester]: the Uterine weight in experiment [1] (setting [6]) worked out at 48.3 ± 1.5 mg; in experiment [1] (setting [7]), 42.1 ± 1.9 mg; in experiment [3] (setting [8]) it was 32.7 ± 3.5 mg; in experiment [3] (setting [9]), 32.9 ± 3.6 mg; in experiment [4] (setting [10]), 40.4 ± 3.6 mg; in experiment [4] (setting [11]), 38.6 ± 2.4 mg. The Ratio is 117% in experiment [1] (setting [6]); 102% in experiment [1] (setting [7]); 108% in experiment [3] (setting [8]); 108% in experiment [3] (setting [9]); 122% in experiment [4] (setting [10]); 117% in experiment [4] (setting [11]). The “Relative rate of increase in cell number” value in experiment [2] (BisA + n-octyl gallate, MCF-7, 4 days culture, control = 100) is given as 91%. The “suppression of the proliferation of the cells (in words)” value in experiment [2] (BisA and n-octyl gallate added, MCF-7) was “suppressed to a degree almost the same as that of the control”. The compound further displayed an IC50 in experiment [5] of 3.38 µM.

In general, IC50 refers to the concentration that inhibits the measured activity by half.
